# Measured values: patent US20030096831A1, “Ocular growth and nicotinic antagonists” (priority 2000, published 2003)
# Values joined by “and” are separate entries in the source; they are usually repeats but may differ in a detail not shown here. Equal values may be shown once. “Also recorded” adds a separate entry of the source. Where a name gives a salt, the structure may show the parent alone.
# Experiments:
# [1] = tested on: chick eye (intraocular muscles, refraction, ocular dimensions); experiment: Acute drug effects after a single intravitreal injection (pupil, refractometry, ultrasonography); type: in vivo, chicks
# Method: Acute drug effects. To assess acute drug effects, other two-week old chicks (n=5/group) received a single unilateral intravitreal injection of one of the nicotinic antagonists at doses chosen based on drug effects on the growth of goggled eyes: 200 μg chlorisondamine, 50 μg and 1 μg mecamylamine, 5 μg methyllycaconitine or […] dihydro-β-erythroidine. Just before and at two hours and 24 hours after injection, both eyes were examined by refractometry and ultrasonography by the above methods.
# form deprived eye = experiment: Longer term effects of single-dose chlorisondamine on form deprivation myopia; type: in vivo, chicks; details: for Refraction Difference: goggled minus contralateral eye
# Method: Longer term effects of single-dose chlorisondamine. In a separate experiment, another group of goggled chicks received a single intravitreal dose of 200 μg of chlorisondamine to the form deprived eye and saline to the contralateral eye only at the time of goggle application. They were compared to a group of unilaterally goggled chicks receiving a single saline injection to both eyes only at the time of goggle application. Neither group received subsequent intraocular injections. These chicks were evaluated by refractometry and ultrasound 4 days later, using ketamine/xylazine anesthesia. At one week after goggle application and single drug injection, the same chicks were evaluated again with refractometry, ultrasonography and caliper measurements of enucleated eyes as described above.
# [2] = tested on: retina, retinal pigment epithelium, choroid; experiment: Histopathological effects on goggled and never-goggled eyes; type: in vivo, chicks; details: one week
# Method: Histopathological effects. To identify potential histopathologic effects in other groups of monocularly deprived or never-goggled one-week old chicks, chlorisondamine (200 or 100 μg every other day; n=5-6/group), mecamylamine (200 or 50 μg daily; n=5-8/group) or saline vehicle (n=3-9/group) was administered by intravitreal injection to the goggled eyes or to one of the open eyes of never-goggled chicks with vehicle to the contralateral eye, using the identical protocol as above. After one week of treatment, the above protocols provided refraction, ultrasound and caliper measurements. The eyes were then immersion fixed in 3% glutaraldehyde/0.5% paraformaldehyde in 0.1M phosphate buffer, pH 7.4. The posterior segments were either embedded in paraffin, cut at 5 μm thickness and stained with hematoxylin and eosin, or embedded in historesin, cut at 3 μm or 5 μm thickness and stained with 0.5% azure II/0.5% methylene blue in 1% borate.
# non-goggled eyes = experiment: Eye growth and refraction of non-goggled (open) eyes, intravitreal drug for one week
# [3] = tested on: goggled eyes (form-deprivation myopia); experiment: Form-deprivation myopia in unilaterally goggled chicks, intravitreal drug for one week; details: for axial length measured by digital calipers, goggled eyes, drug effect / axial length measured by ultrasound, goggled eyes, drug effect / equatorial diameter measured by calipers (equatorial expansion of vitreous cavity), goggled eyes, drug effect / refraction of goggled eyes (myopic refractive error), drug effect / vitreous cavity length measured by ultrasound, goggled eyes, drug effect: difference goggled vs contralateral open eye, ANOVA over all doses; for axial length measured by digital calipers, goggled eyes, drug effect / axial length measured by ultrasound, goggled eyes, drug effect / equatorial diameter measured by calipers (equatorial expansion of vitreous cavity), goggled eyes, drug effect / refraction of goggled eyes (myopic refractive error), drug effect / vitreous cavity length measured by ultrasound, goggled eyes, drug effect / overall effect on excessive ocular growth / experimental myopia of goggled eyes / anterior chamber depth of goggled eyes, drug effect: intravitreal; for anterior chamber depth of goggled eyes, drug effect: ANOVA
# [4] = 2 hours after 200 μg single intravitreal injection
# [5] = 24 hours after 200 μg single intravitreal injection
# [6] = 1 Week after single 200 μg dose
# [7] = 4 Days after single 200 μg dose
# [8] = 100 μg every other day, goggled or non-goggled eyes
# [9] = never-goggled chicks, drug treated vs contralateral vehicle treated eye, ANOVA on ranks
# [10] = non-goggled chicks, treated eyes, P<0.05
# [11] = goggled chicks, P<0.05, dose groups that differ
# [12] = goggled chicks, P<0.05, dose groups that differ, listed as Chlorisondamine
# [13] = two hours after single intravitreal injection of 50 μg
# [14] = one week, listed as Dihydro-β-erythroidine, hydrobromide
smiles,measurement,setting,value
"C[N+](C)(C)CC[N+]1(C)Cc2c(Cl)c(Cl)c(Cl)c(Cl)c2C1 [chlorisondamine, chlorisondamine diiodide]","acute effect on ultrasound measurements of ocular dimensions, in words",[1]; 2 and 24 hours after single intravitreal injection,transiently reducing axial and vitreous cavity lengths at the 2 hour but not at the 24 hour reading
same,reduction in axial length by ultrasonography,[1]; [4],0.16±0.04 mm
same,reduction in posterior chamber depth by ultrasonography,[1]; [4],0.20±0.07 mm
same,reduction of lens thickness,[1]; [4],0.12±0.04 mm
same,axial length and posterior chamber depth at 24 hours,[1]; [5],returned to baseline
same,reduction of lens thickness,[1]; [5],0.16±0.05 mm
same,"pupil diameter, change from baseline",[1]; 24 hours after single intravitreal injection (chlorisondamine 200 μg),0.7±0.2 mm
same,"pupil diameter, change from baseline",[1]; two hours after single intravitreal injection of 200 μg,0.8±0.1 mm
same,"axial length difference (ultrasound), ratio-chlorisondamine/vehicle",form deprived eye; 1 Week,0.54
same,"vitreous cavity length difference, ratio-chlorisondamine/vehicle",form deprived eye; 1 Week,0.71
same,Caliper Measurements axial length difference,form deprived eye; [6],0.22 ± 0.10 mm**
same,Caliper Measurements equatorial diameter difference,form deprived eye; [6],0.17 ± 0.07 mm****
same,Ultrasound Measurements axial length difference,form deprived eye; [6],0.33 ± 0.11 mm**
same,Ultrasound Measurements vitreous cavity length difference,form deprived eye; [6],0.49 ± 0.08 mm*
same,Refraction Difference,form deprived eye; [6],−8.58 ± 2.06 diopters
same,"axial length difference (ultrasound), ratio-chlorisondamine/vehicle",form deprived eye; 4 Days,0.47
same,"vitreous cavity length difference, ratio-chlorisondamine/vehicle",form deprived eye; 4 Days,0.70
same,Ultrasound Measurements axial length difference,form deprived eye; [7],0.20 ± 0.07 mm***
same,Ultrasound Measurements vitreous cavity length difference,form deprived eye; [7],0.28 ± 0.06 mm
same,Refraction Difference,form deprived eye; [7],−2.98 ± 1.88 diopters**
same,"response for form deprivation after a single dose, in words","form deprived eye; single dose of 200 μg at the time of goggle application, over the next week",significantly blunted the response for form deprivation over the next week
same,gross inspection of the eye cups,[2]; [8],either a normal fundus or only mild peripheral pigmentary changes
same,histology,[2]; [8],"Some eyes had normal histology, some showed a single large, smooth hyper-pigmented inclusion within a rare RPE cell as the sole detectable histologic change, and some had a small isolated peripheral patch of the marked RPE/choriocapillaris pathology"
same,gross inspection of the eye cup,"[2]; 200 μg every other day, most goggled eyes (4/5) and all never-goggled eyes (n=5)",mild to marked mottling and depigmentation of the mid-peripheral fundus
same,histology of tissue sections,"[2]; 200 μg every other day, regions corresponding to peripheral depigmented areas",marked disruption and clumping of cells of the retinal pigment epithelium (RPE)
same,"equatorial expansion of the vitreous cavity, non-goggled drug-treated eyes","non-goggled eyes; never-goggled chicks, ANOVA on ranks",did not reach statistical significance
same,increase in lens thickness,"non-goggled eyes; never-goggled chicks, both eyes of the 10 μg group compared to 50, 100 or 200 μg doses and saline chicks",about 0.1 mm
same,"axial expansion of the vitreous cavity, non-goggled drug-treated eyes",non-goggled eyes; [9],growth reduction was confined to the vitreous cavity; also recorded: inhibited the axial expansion of the vitreous cavity
same,"axial length by calipers, non-goggled drug-treated eyes",non-goggled eyes; [9],reduced the axial growth of drug-treated eyes; also recorded: reduced axial length
same,"axial length by ultrasound, non-goggled drug-treated eyes",non-goggled eyes; [9],reduced the axial growth of drug-treated eyes; also recorded: reduced axial length
same,refraction of non-goggled drug-treated eyes,non-goggled eyes; [9],hyperopic shift in refraction; also recorded: shifted overall refraction towards hyperopia
same,Ultrasound measurements vitreous cavity depth: statistically significant post hoc pairwise comparisons (Tukey test),non-goggled eyes; [10],100 μg and 50 μg and 100 μg vs. 50 μg
same,refraction: statistically significant post hoc pairwise comparisons (Tukey test),non-goggled eyes; [10],200 μg and 10 μg and 200 μg vs. 10 μg
same,"axial length measured by digital calipers, goggled eyes, drug effect",[3]; one week,inhibited the excessive axial elongation developing beneath a goggle
same,"axial length measured by ultrasound, goggled eyes, drug effect",[3]; one week,inhibited the excessive axial elongation developing beneath a goggle
same,"equatorial diameter measured by calipers (equatorial expansion of vitreous cavity), goggled eyes, drug effect",[3]; one week,reduced the vitreous cavity expansion
same,"refraction of goggled eyes (myopic refractive error), drug effect",[3]; one week,reduced the myopic refractive error; also recorded: influenced the myopic refraction occurring beneath a goggle
same,"vitreous cavity length measured by ultrasound, goggled eyes, drug effect",[3]; one week,reduced the vitreous cavity expansion
same,Ultrasound measurements vitreous cavity depth: statistically significant post hoc pairwise comparisons (Tukey test),[3]; [11],100 μg vs. 50 μg
same,Ultrasound measurements axial length: statistically significant post hoc pairwise comparisons (Tukey test),[3]; [12],significant drug effects compared to the vehicle-treated controls
same,Ultrasound measurements vitreous cavity depth: statistically significant post hoc pairwise comparisons (Tukey test),[3]; [12],significant drug effects compared to the vehicle-treated controls
same,refraction: statistically significant post hoc pairwise comparisons (Tukey test),[3]; [12],significant drug effects compared to the vehicle-treated controls
same,overall effect on excessive ocular growth / experimental myopia of goggled eyes,[3]; one week,reduced the excessive ocular growth occurring beneath a goggle
same,"anterior chamber depth of goggled eyes, drug effect",[3]; one week,no statistically significant effect
"Br.COC1CC=C2CCN3CCC4=C(CC(=O)OC4)C23C1 (stereo not drawn) [dihydro-β-erythroidine, dihydro-β-crythroidine hydrobromide]","pupil diameter, change from baseline",[1]; [13],1.0±0.1 mm
same,"axial length measured by digital calipers, goggled eyes, drug effect",[3]; one week,significant reduction
same,"axial length measured by ultrasound, goggled eyes, drug effect",[3]; one week,"none of the differences in refraction, ultrasound measurements or caliper measurements of the equatorial diameter reached statistical significance"
same,"equatorial diameter measured by calipers (equatorial expansion of vitreous cavity), goggled eyes, drug effect",[3]; one week,"none of the differences in refraction, ultrasound measurements or caliper measurements of the equatorial diameter reached statistical significance"
same,"vitreous cavity length measured by ultrasound, goggled eyes, drug effect",[3]; one week,"none of the differences in refraction, ultrasound measurements or caliper measurements of the equatorial diameter reached statistical significance"
same,"refraction of goggled eyes (myopic refractive error), drug effect","[3]; one week, hydrobromide",had no effect on the refraction of visually deprived eyes
same,"refraction of goggled eyes (myopic refractive error), drug effect",[3]; [14],"none of the differences in refraction, ultrasound measurements or caliper measurements of the equatorial diameter reached statistical significance"
same,Caliper measurements axial length: statistically significant post hoc pairwise comparisons (Tukey test),[3]; [11],no individual drug dose was identified
same,overall effect on excessive ocular growth / experimental myopia of goggled eyes,"[3]; one week, hydrobromide",weaker as only the axial measurements by calipers showed a statistically significant drug effect
same,overall effect on excessive ocular growth / experimental myopia of goggled eyes,[3]; [14],only a weak effect against experimental myopia
CNC1(C)C2CCC(C2)C1(C)C (stereo not shown) [mecamylamine],"pupil diameter, change from baseline",[1]; 24 hours after single intravitreal injection of 50 μg,0.4±0.1 mm
same,"pupil diameter, change from baseline",[1]; two hours after single intravitreal injection of 1 μg,0.8±0.2 mm
same,"pupil diameter, change from baseline",[1]; [13],0.3±0.1 mm
same,"retinas, gross and histological appearance","[2]; 200 or 50 μg daily, goggled and non-goggled eyes",indistinguishable grossly or histologically from vehicle treated control eyes
same,growth or refraction of non-goggled eyes,"non-goggled eyes; daily intravitreal injections, one week, doses of 50, 10 or 1 μg",no influence
same,induced myopia (refraction) of goggled eyes at the 50 μg dose,"[3]; 50 μg daily intravitreal, one week",virtually eliminated the induced myopia
same,"axial length measured by digital calipers, goggled eyes, drug effect",[3]; one week,no statistical effect
same,"axial length measured by ultrasound, goggled eyes, drug effect",[3]; one week,only a trend towards a drug effect
same,"equatorial diameter measured by calipers (equatorial expansion of vitreous cavity), goggled eyes, drug effect",[3]; one week,influenced
same,"refraction of goggled eyes (myopic refractive error), drug effect",[3]; one week,altered refraction of goggled eyes; also recorded: influenced the myopic refraction occurring beneath a goggle
same,"vitreous cavity length measured by ultrasound, goggled eyes, drug effect",[3]; one week,influenced the ultrasound measurements of vitreous cavity length
same,Caliper measurements equatorial diameter: statistically significant post hoc pairwise comparisons (Tukey test),[3]; [11],did not identify any individual doses that differed from the controls
same,Ultrasound measurements vitreous cavity depth: statistically significant post hoc pairwise comparisons (Tukey test),[3]; [11],50 μg vs. 1 μg
same,refraction: statistically significant post hoc pairwise comparisons (Tukey test),[3]; [11],only the 50 μg dose differed significantly from the controls and 200 μg vs. 1 μg and 100 μg vs. 1 μg
same,Ultrasound measurements vitreous cavity depth: statistically significant post hoc pairwise comparisons (Tukey test),"[3]; goggled chicks, P<0.05, dose groups that differ, listed as Mecamylamine",the 1 μg dose as different from the 50 μg dose but not from the controls
same,overall effect on excessive ocular growth / experimental myopia of goggled eyes,[3]; one week,multiphasic response that differed between the low and high drug doses; also recorded: reduced the excessive ocular growth occurring beneath a goggle
same,growth and myopic refractive shift of goggled eyes at the lowest doses,[3]; lowest doses (1 and 10 μg) daily intravitreal,tended toward stimulating the growth and myopic refractive shift of goggled eyes
"CCN1C[C@]2(COC(=O)c3ccccc3N3C(=O)C[C@H](C)C3=O)CC[C@H](OC)[C@@]34[C@@H]5C[C@H]6[C@H](OC)[C@@H]5[C@](O)(C[C@@H]6OC)[C@](O)([C@@H](OC)[C@H]23)[C@@H]14 [methyllycaconitine, methyllcaconitine citrate]","pupil diameter, change from baseline",[1]; two hours after single intravitreal injection of 5 μg,0.4±0.2 mm
same,"anterior chamber depth of goggled eyes, drug effect",[3]; one week,no effect
